Experimental data reported in patent publication US20220265629A1, “TREATMENT OF SYSTOLIC DYSFUNCTION AND HEART FAILURE WITH REDUCED EJECTION FRACTION WITH THE COMPOUND (R)-4-(1-((3-(DIFLUOROMETHYL)-1-METHYL-1H-PYRAZOL-4-YL)SULFONYL)-1-FLUOROETHYL)-N-(ISOXAZOL-3-YL)PIPERIDINE-1-CARBOXAMIDE” (MyoKardia, Inc., priority 2019, published 2022).
“And” between values parts separate entries of the source, which are not always exact repeats. Equal values may be shown once. Read-outs that look alike come from different tables or passages of the source.

Assay: HFrEF study Part 2 (MAD Cohorts A-D): plasma pharmacokinetics
Assay type: in vivo, human
Settings: for Plasma concentration, Mean / Plasma concentration, Median: MAD cohorts; for AUC / Cmax / half-life: human, plasma, oral; for half-life: read-out: t1/2, λz (converted)
Source text: This was a randomized, parallel-group, DB, placebo-controlled, adaptive design, sequential ascending (oral) multiple-close study in stable patients with heart failure. Four MAD Cohorts (A, B, C, D) were enrolled (FIG. 5B). An SRC reviewed results from each cohort and determined the close and confirmed initial sample size for the subsequent cohort. Additionally, the first 3 patients in each cohort had LVEF≥25%; the SRC reviewed preliminary safety data from these patients and decided whether to open cohort enrollment to patients with LVEF<25%.
After Screening and qualification, patients were confined to a clinical testing facility from Day 1 (Check-in) to Day 11. Each patient initially received placebo BID for 2 days (Days 1 and 2) in single-blinded manner (“run-in” during acclimatization to confinement in the Clinical Testing Unit) prior to receiving the randomized DB study drug treatment on Day 3. All patients then received either placebo or active Compound I for 7 days (Days 3 through 9), with a follow-up period with patients discharged from the unit on Day 11. A final follow-up clinic visit was conducted on Day 16. More than one patient could be closed in a cohort at the same time or during the same week depending on administrative issues, i.e., capacity and scheduling.
Patients were closed twice daily (every 12 hours). Doses could occur±2 hours from scheduled dosing times as long as closes were separated by at least 10 hours and by no more than 14 hours. The exception to the twice daily dosing was on Day 9 (last dose of randomized DB study drug treatment). On Day 9, a single morning close was administered.
During the study, multiple evaluations were performed that included: serial TTE assessments (11-14 TTEs per patient on Days 1, 2, 3, 4, 7, 9, 10 and 11); PK sampling (PK sample collected concomitantly with every post-randomization echocardiogram); ECGs (on Days 2, 3, 4, 7, 9, 10, 11 and 16); troponin (collected concomitantly with every post-randomization ECG); and safety laboratory assessments. Confined patients underwent continuous telemetry. Holter monitoring was performed in all patients at baseline (Days 1-2) and at the end of double-blind treatment (Days 7-9). Vital signs were collected daily.
Study medication consisted of Compound I 5 mg tablets, 25 mg tablets, 100 mg tablets, or matching placebo tablets. In Part 1 (SAD), Compound I or placebo was administered after an overnight fast (at least 6 hours), while in Part 2 (MAD), Compound I was administered after a 2 hour fast (Cohort A) or with food (Cohorts B, C, and D). The close was ingested with a minimum of 240 mL of water, but more water was ingested as needed. The entire close was administered over a period of up to 15 minutes. The time of close used to determine future assessments was the time the last tablet was taken. In the cohorts for Part 2 (MAD), a BID regimen was used.
In Part 2 (MAD), Cohort A patients fasted for 2 hours before and 2 hours after dosing. For example, if morning dosing occurred at 8 AM, patients could have a snack at 6 AM and a full breakfast at 10 AM. If afternoon dosing occurred at 8 PM, patients could have dinner at 6 PM and a snack at 10 PM. […] Cohort B, C, and D patients ingested food with each close.

[1] = MAD Cohort C, 75 mg BID (with food), individual subjects
[2] = MAD Cohort D, 100 mg BID (with food), Mean
[3] = plasma concentration group 2000-<3500 ng/mL (n = 26)
[4] = plasma concentration group <2000 ng/mL (n = 30)
[5] = plasma concentration group ≥3500 ng/mL (n = 13)

Q: With `Cn1cc(S(=O)(=O)[C@@](C)(F)C2CCN(C(=O)Nc3ccon3)CC2)c(C(F)F)n1` [Compound I, (R)-4-(1-((3-(difluoromethyl)-1-methyl-1H-pyrazol-4-yl)sulfonyl)-1-fluoroethyl)-N-(isoxazol-3-yl)piperidine-1-carboxamide] as the molecule, how does the “Cmax, Day 1” value [1] read?
A: 1.02 µg/mL and 1.19 µg/mL and 1.03 µg/mL and 1.15 µg/mL and 1.65 µg/mL and 1.36 µg/mL

Q: And the “Cmax, SS” value [1]?
A: 3.86 µg/mL and 1.84 µg/mL and 3.81 µg/mL and 4.14 µg/mL and 4.94 µg/mL and 3.22 µg/mL and 3.93 µg/mL and 4.72 µg/mL and 5.01 µg/mL

Q: What about the “Cmin, SS” value [1] of the same molecule?
A: 1.74 µg/mL and 0.954 µg/mL and 2.66 µg/mL and 3.24 µg/mL and 3.91 µg/mL and 2.53 µg/mL and 2.44 µg/mL and 3.93 µg/mL and 3.9 µg/mL

Q: And the “t1/2, λz” value [1]?
A: 13.55 h and 15.34 h and 20.46 h and 23.11 h and 41.54 h and 15.67 h and 13.72 h and 30.37 h and 24.06 h

Q: What about the AUC_TAU (MAD Cohort C, 75 mg BID (with food), steady state, individual subjects) of the same molecule?
A: 32.34 µg·h/mL and 15.7 µg·h/mL and 37.52 µg·h/mL and 44.85 µg·h/mL and 53.18 µg·h/mL and 35.56 µg·h/mL and 38.47 µg·h/mL and 51.2 µg·h/mL and 53.69 µg·h/mL

Q: And the “Accumulation Ratio AUC tau” value [2]?
A: 4.65

Q: What about the “Accumulation Ratio Cmax” value [2] of the same molecule?
A: 3.89

Q: And the Accumulation_Index [2]?
A: 3.30

Q: And the “Cavg, ss” value [2]?
A: 5.03 µg/mL

Q: And the “Cmin, SS” value [2]?
A: 4.333 µg/mL

Q: What about the “Plasma concentration, Mean” value [3] of the same molecule?
A: 2.716 µg/mL

Q: And the “Plasma concentration, Median” value [3]?
A: 2.74 µg/mL

Q: And the “Plasma concentration, Mean” value [4]?
A: 1.169 µg/mL

Q: What about the “Plasma concentration, Median” value [4] of the same molecule?
A: 1.22 µg/mL

Q: What about the “Plasma concentration, Mean” value [5] of the same molecule?
A: 4.448 µg/mL

Q: What about the “Plasma concentration, Median” value [5] of the same molecule?
A: 4.29 µg/mL

Q: And the AUC (50 mg, MAD Cohort B, 50 mg BID (with food), Mean, read-out: AUCtau, Day 1)?
A: 7.3 µg·h/mL

Q: What about the Cmax (50 mg, MAD Cohort B, 50 mg BID (with food), Mean, read-out: Cmax, Day 1) of the same molecule?
A: 0.806 µg/mL

Q: And the Cmax (50 mg, MAD Cohort B, 50 mg BID (with food), Mean, read-out: Cmax, SS)?
A: 2.77 µg/mL

Q: What about the half-life (50 mg, MAD Cohort B, 50 mg BID (with food), Mean) of the same molecule?
A: 25.1 h

Q: And the AUC (50 mg, MAD Cohort B, 50 mg BID (with food), individual subjects, read-out: AUCtau, Day 1)?
A: 7.43 µg·h/mL

Q: What about the Cmax (50 mg, MAD Cohort B, 50 mg BID (with food), individual subjects, read-out: Cmax, Day 1) of the same molecule?
A: 0.933 µg/mL

Q: What about the Cmax (50 mg, MAD Cohort B, 50 mg BID (with food), individual subjects, read-out: Cmax, SS) of the same molecule?
A: 2.95 µg/mL

Q: What about the AUC (50 mg, MAD Cohort B, 50 mg BID (with food), steady state, Mean, read-out: AUC_TAU) of the same molecule?
A: 28.9 µg·h/mL

Q: What about the AUC (50 mg, MAD Cohort B, 50 mg BID (with food), steady state, individual subjects, read-out: AUC_TAU) of the same molecule?
A: 29.7 µg·h/mL

Q: What about the AUC (75 mg, MAD Cohort A, 75 mg BID (4 h fasting), Mean, read-out: AUCtau, Day 1) of the same molecule?
A: 10.4 µg·h/mL

Q: And the Cmax (75 mg, MAD Cohort A, 75 mg BID (4 h fasting), Mean, read-out: Cmax, Day 1)?
A: 1.12 µg/mL

Q: And the Cmax (75 mg, MAD Cohort A, 75 mg BID (4 h fasting), Mean, read-out: Cmax, SS)?
A: 4.05 µg/mL

Q: And the half-life (75 mg, MAD Cohort A, 75 mg BID (4 h fasting), Mean)?
A: 21.4 h

Q: What about the AUC (75 mg, MAD Cohort A, 75 mg BID (4 h fasting), individual subjects, read-out: AUCtau, Day 1) of the same molecule?
A: 10.6 µg·h/mL

Q: And the Cmax (75 mg, MAD Cohort A, 75 mg BID (4 h fasting), individual subjects, read-out: Cmax, Day 1)?
A: 1.06 µg/mL

Q: And the Cmax (75 mg, MAD Cohort A, 75 mg BID (4 h fasting), individual subjects, read-out: Cmax, SS)?
A: 4.58 µg/mL

Q: And the AUC (75 mg, MAD Cohort A, 75 mg BID (4 h fasting), steady state, Mean, read-out: AUC_TAU)?
A: 41 µg·h/mL

Q: And the AUC (75 mg, MAD Cohort A, 75 mg BID (4 h fasting), steady state, individual subjects, read-out: AUC_TAU)?
A: 46.2 µg·h/mL

Q: And the AUC (75 mg, MAD Cohort C, 75 mg BID (with food), Mean, read-out: AUCtau, Day 1)?
A: 10.6 µg·h/mL

Q: And the Cmax (75 mg, MAD Cohort C, 75 mg BID (with food), Mean, read-out: Cmax, Day 1)?
A: 1.25 µg/mL

Q: And the Cmax (75 mg, MAD Cohort C, 75 mg BID (with food), Mean, read-out: Cmax, SS)?
A: 3.94 µg/mL

Q: What about the half-life (75 mg, MAD Cohort C, 75 mg BID (with food), Mean) of the same molecule?
A: 22 h

Q: And the Cmax (75 mg, MAD Cohort C, 75 mg BID (with food), individual subjects, read-out: Cmax, Day 1)?
A: 1.78 µg/mL

Q: And the AUC (75 mg, MAD Cohort C, 75 mg BID (with food), steady state, Mean, read-out: AUC_TAU)?
A: 40.3 µg·h/mL

Q: What about the AUC (100 mg, MAD Cohort D, 100 mg BID (with food), Mean, read-out: AUCtau, Day 1) of the same molecule?
A: 12.9 µg·h/mL

Q: And the Cmax (100 mg, MAD Cohort D, 100 mg BID (with food), Mean, read-out: Cmax, Day 1)?
A: 1.48 µg/mL

Q: What about the Cmax (100 mg, MAD Cohort D, 100 mg BID (with food), Mean, read-out: Cmax, SS) of the same molecule?
A: 5.68 µg/mL

Q: And the half-life (100 mg, MAD Cohort D, 100 mg BID (with food), Mean)?
A: 23.1 h

Q: What about the AUC (100 mg, MAD Cohort D, 100 mg BID (with food), individual subjects, read-out: AUCtau, Day 1) of the same molecule?
A: 11.6 µg·h/mL

Q: What about the Cmax (100 mg, MAD Cohort D, 100 mg BID (with food), individual subjects, read-out: Cmax, Day 1) of the same molecule?
A: 1.56 µg/mL

Q: And the Cmax (100 mg, MAD Cohort D, 100 mg BID (with food), individual subjects, read-out: Cmax, SS)?
A: 5.21 µg/mL

Q: What about the half-life (100 mg, MAD Cohort D, 100 mg BID (with food), individual subjects) of the same molecule?
A: 24.3 h

Q: What about the AUC (100 mg, MAD Cohort D, 100 mg BID (with food), steady state, Mean, read-out: AUC_TAU) of the same molecule?
A: 60.4 µg·h/mL
